In PubChem BioAssay (NCI):
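Growth conditions: 96-well plates. Treatment: test compound, 48 hours, 5 concentrations. Analysis: linear interpolation between bracketing concentrations; unreached endpoints set to highest concentration. The concentration for 50% growth inhibition is given as GI50. Definition used: TGI = concentration required for complete inhibition of growth.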

Legend:
Assay in all cases: DTP human tumour cell line panel, 48 h
[1] = tested on: LOX IMVI melanoma
[2] = tested on: MDA-MB-435
[3] = tested on: NCI-H226 lung
[4] = tested on: NCI-H23 lung
[5] = tested on: SF-268 CNS
[6] = tested on: MALME-3M melanoma
[7] = tested on: HS 578T breast
[8] = tested on: SF-539 CNS
[9] = tested on: SNB-19 CNS
[10] = tested on: NCI/ADR-RES ovarian

Row | Structure (SMILES) | TGI [1] [µM] | TGI [2] [µM] | TGI [3] [µM] | TGI [4] [µM] | TGI [5] [µM] | TGI [6] [µM] | TGI [7] [µM] | TGI [8] [µM] | TGI [9] [µM] | TGI [10] [µM] | GI50 [1] [µM] | GI50 [2] [µM] | GI50 [3] [µM] | GI50 [4] [µM] | GI50 [5] [µM] | GI50 [6] [µM] | GI50 [7] [µM] | GI50 [8] [µM] | GI50 [9] [µM] | GI50 [10] [µM]
1 | Cc1c(O)c2ccccc2oc1=O | > 100 | > 100 | > 100 | > 100 | > 100 | > 100 | > 100 | > 100 | > 100 | > 100 |  |  |  |  |  |  |  |  |  | 
2 | Nc1c(C(=O)c2ccc(-c3cccnc3)cc2)cnn1-c1ccc(F)cc1 | > 25 | > 25 | > 25 | > 25 | > 25 | > 20.3 | > 25 | > 25 | > 25 | > 25 | > 25 | > 25 | > 16.2 | > 22.7 | > 15.8 | 11 | > 25 | > 16.7 | > 25 | > 19.5
3 | O=C(c1ccco1)c1nc2cc(C(F)(F)F)ccc2nc1C(F)(F)F | > 100 | > 100 |  | > 100 | > 100 | > 100 | > 100 | > 100 | > 100 | > 100 | > 100 | > 100 |  | > 100 | > 100 | > 100 | > 100 | > 100 | > 100 | > 100
4 | CCOC(=O)c1ccc(Nc2sc(C(=O)c3ccc(Br)cc3)c(N)c2C#N)cc1 | > 100 | 1.01 | > 100 | > 100 | > 100 | > 100 | > 100 | > 100 | > 100 | > 100 | 1.64 | 0.257 | 19.2 | 14.3 | 2.56 | 3.66 | 1.48 | 1.07 | 7.18 | 0.842
5 | CN1CCC(COc2cnc(-c3cccc(Cn4nc(-c5cccc(C#N)c5)ccc4=O)c3)nc2)CC1 | 4.09 | 9.47 | 24.8 | 21.6 | 16.4 | 3.63 | 19.8 | 3.3 | 25.7 | 28.1 | 1.93 | 2.74 | 7.18 | 4.93 | 3.81 | 1.83 | 4.63 | 1.7 | 4.45 | 7.41
6 | C=C(C)[C@@H]1CC[C@]2(COCCC#N)CC[C@]3(C)[C@H](CC[C@@H]4[C@@](C)(CCCNCCC#N)[C@H](C(=C)C)CC[C@]43C)[C@@H]12 | 16.7 | 34.5 | 18.5 | > 50 | > 50 | 16.2 | > 50 | 20.4 | > 50 | > 50 | 8.47 | 12.7 | 8.88 | 16.5 | 23.5 | 8.42 | 21.1 | 9.78 | 26.4 | 20.7
7 | O=C1CC[C@H](N2C(=O)c3cccc4c(Cc5ccc(CN6CCOCC6)cc5)ccc2c34)C(=O)N1 | > 100 | > 100 | > 100 | > 100 | > 100 | > 100 | > 100 | > 100 | > 100 | > 100 | 26.1 | 36.9 | 11.7 | 29.4 | > 100 | 30 | 46.8 | > 100 | > 100 | 42
8 | Cc1cccc(-c2[nH]ncc2-c2ccc3ncccc3n2)n1 | > 25 | > 25 | > 25 | > 25 | > 25 | > 25 | > 25 | > 25 | > 25 | > 25 | 7.56 | 15.4 | 9.92 | 14.2 | 10.5 | > 25 | > 14.5 | 17.4 | 13.2 | 13.7
9 | Cc1ccc(NC(=O)c2ccc(CN3CCN(C)CC3)cc2)cc1Nc1nccc(-c2cccnc2)n1 | 34.8 | 36 | 49.9 | 38.2 | 71 | 32 | 43.1 | 22.4 | > 100 | 68.3 | 13.1 | 17.4 | 19.6 | 15 | 25.6 | 16.5 | 15 | 8.06 | 36.1 | 23.8
10 | CC[C@H](NC(=O)[C@H]1CCCCN1C)C(=O)N(C)[C@H](C[C@@H](OC(C)=O)c1nc(C(=O)N[C@@H](Cc2ccccc2)C[C@H](C)C(=O)O)cs1)C(C)C | > 14.3 | 0.00391 | > 7.57 | > 14.3 | > 14.3 | > 14.3 | > 14.3 | 0.0265 | > 14.3 | > 14.3 | 0.0103 | < 0.00143 |  | 0.0073 | < 0.03 | 0.00538 | 0.00643 | 0.0035 | 0.00568 | 0.0785
11 | C=C(C)C1CC/C(C)=C/CCC2(C)OC2CC/C(CO)=C\C1O (stereo not given) | > 100 | > 100 | > 100 | > 100 | > 100 | > 100 | 53.5 | > 100 | > 100 | > 100 |  |  |  |  |  |  |  |  |  | 
12 | NS(=O)(=O)OCC1OC(n2cnc3cncnc32)C(O)C1O (stereo not given) | 0.0548 | 0.0845 | 0.222 | 0.0525 | 0.279 | 0.272 | 0.932 | 0.0467 | 0.0685 | 0.0503 | 0.0228 | 0.0284 | 0.0344 | 0.0175 | 0.0267 | 0.0469 | 0.0592 | 0.0206 | 0.0126 | 0.0103
13 | C=CCC(N[C@@H](CO)c1ccccc1)c1cn(Cc2ccccc2Cl)c(=O)n(Cc2ccccc2Cl)c1=O (stereo not given in full) | > 100 | > 100 | > 100 | > 100 | > 100 | > 100 | > 100 | > 100 | > 100 | > 100 | > 100 | > 100 | > 100 | > 100 | > 100 | > 100 | > 100 | > 100 | > 100 | > 100
14 | CCOC(=O)c1ccccc1OC(=O)NNc1ccccc1 | > 100 | > 100 | > 100 | > 100 | > 100 | > 100 | > 100 | 1.33 | > 100 | > 100 | 5 | 0.531 | > 23.7 | 30.3 | 12.1 | 5.44 | > 31.9 | 0.312 | > 51.6 | 3.8
15 | CC[C@H]1CN2CCc3cc(OC)c(OC)cc3C2C[C@@H]1CC1NCCc2cc(OC)c(OC)cc21 (stereo not given in full) | 0.0224 | 0.112 | 0.194 | 0.0916 |  | 0.222 | 1.75 |  |  | 1.19 |  | 0.0161 |  |  |  |  |  |  |  | 
16 | CCOC(=O)C1=C(C)N=c2s/c(=C\c3ccccc3O)c(=O)n2C1c1ccc(OC)c2ccccc12 (stereo not given) | 5.65 | > 100 | 32.4 | 30.7 | 25.5 | 19 | 13.4 | 3.67 | 67.9 | 43.5 | 2.44 | 13.1 | 12.6 | 7.72 | 6.23 | 4.14 | 2.95 | 1.76 | 13.8 | 7.92
17 | COc1ccc(/C=C(/C(=O)N2CCN(c3ccccc3)CC2)c2cc(OC)c(OC)c(OC)c2)cc1N | > 100 | 0.419 | > 100 | > 100 | > 100 | > 100 | > 100 | 0.797 | > 100 | > 100 | 0.696 | 0.138 | 3.2 | 2.18 | 0.711 | 12.2 | 0.357 | 0.223 | 0.444 | 0.623
18 | COC1=CC(c2ccc[nH]2)=N/C1=C\c1[nH]c(C)c(CC(=O)OCc2ccccc2)c1CCC(=O)OCc1ccccc1 | 1.03 | 1.64 | 2.3 | 4.45 |  | 2.62 | 2.87 | 1.74 | > 100 | 3.37 | 0.284 | 0.412 | 0.335 | 0.546 | 0.464 | 0.886 | 0.395 | 0.458 | 1.72 | 0.579
19 | C[C@]12CCc3nc(Nc4cccc(O)c4)sc3C1=CC[C@@H]1[C@@H]2CC[C@]2(C)/C(=N\NC(N)=S)CC[C@@H]12 | 2.85 | 4.55 | 80.7 | 8.96 | 4.45 | 3.51 |  | 1.84 | 12.8 | > 100 | 1.52 | 1.76 | 5.34 | 2.78 | 1.66 | 1.6 | 0.843 | 0.464 | 1.88 | 3.07
20 | NC1=CC(=O)c2cccnc2C1=O | 2.69 | 2.12 | 27.7 | 4.14 | 3.78 | 3.11 | 8.17 | 3 | 3.88 | 11.2 | 0.981 | 0.833 | 7.61 | 1.34 | 1.48 | 1.7 | 2.28 | 1.62 | 1.84 | 2.29
21 | CCOC(=O)[C@@H](C)C[C@H](Cc1ccccc1)NC(=O)c1nc([C@@H](C[C@H](C(C)C)N(C)C(=O)[C@@H](NC(=O)[C@H]2CCCCN2C)C(C)C)OC(C)=O)sc1CCOCc1ccccc1 | 1.54 | 0.0478 | 1.05 | 5.6 | 2.3 | 2.17 | 2.85 | 0.39 | 4.34 | 3.98 | 0.0609 | 0.0123 | 0.107 | 0.188 | 0.158 | 0.0602 | 0.083 | 0.0571 | 0.0926 | 0.503
22 | CCN(CC)CCNc1ccc(C)c2sc3cc(Cl)ccc3c(=O)c12 | 3.01 | 3.14 | 3.58 | 3.47 | 3.37 | 3.61 | 3.9 | 3 | 3.51 | 3.23 | 1.58 | 1.7 | 1.74 | 1.7 | 1.68 | 1.84 | 1.65 | 1.6 | 1.74 | 1.62
23 | Cn1cc(C2=C(c3ccccc3[N+](=O)[O-])C(=O)NC2=O)c2ccccc21 | > 25 | > 25 | > 20.3 | > 25 | 18 | > 20.8 | > 16.9 | 10.1 | > 25 | > 21.6 | 3.13 | 4.82 | 4.37 | 7.25 | 5.64 | 9.55 | 0.975 | 2.61 | 6.88 | 6.32
24 | CC1(C)N=C(N)N=C(N)N1c1ccc(CCCCc2ccccc2)c(Cl)c1 | 1.52 | 5.91 | 24.4 | 10.2 | 13.7 | 8.93 | 39.4 | 5.14 | > 35.9 | > 100 | 0.0131 | 0.038 | 0.275 | 0.0543 | 0.0536 | 0.855 | 4.49 | 0.121 | 0.0746 | 6.74
25 | Cc1cc(=O)[nH]c(N/N=C/c2cc(Br)ccc2O)n1 | > 100 | 81.5 | > 100 | > 100 | > 100 |  | > 100 | 39 | > 100 | > 100 | 0.634 | 1.77 | 2.1 | 0.481 | 0.728 |  | 7.1 | 2.78 | 3.56 | 0.35
26 | C=C1CC2CCCC12C=O (stereo not given) | > 10 | > 10 |  | > 10 | > 10 | > 10 | > 10 | > 10 | > 10 | > 10 |  |  |  |  |  |  |  |  |  | 
